Reference: US5639779A, “Indole derivatives as 5-HT1-like agonists” (Pfizer Inc., priority 1992, dated 1997)

Assays:
[1] = target: T1, "5-HT1 -like" receptor (dog isolated saphenous vein strip) (Canis lupus familiaris, UniProt P79250); test: contraction of dog isolated saphenous vein strip (5-HT1-like receptor agonist activity); type: cell-based; conditions: in vitro; for RELATIVE POTENCY EC50 (compound)/EC50 (5-HT): ratio to 5-HT; for EC50: read-out: EC50 (concentration of compound which causes 50% of the maximum contraction effected by it)
T1 construct: contracting the isolated dog saphenous vein strip; from tissue; host or cells: dog isolated saphenous vein strip
Protocol: The in vitro evaluation of the "5-HT1 -like" receptor agonist activity of the compounds of the invention is carried out by testing the extent to which they mimic sumatriptan in contracting the isolated dog saphenous vein strip (P. P. A. Humphrey et al., Brit. J. Pharmacol., 1988, 94, 1123).
The following Table illustrates the in vitro activities for a range of the Compounds of the invention on dog isolated saphenous vein strip. EC50 represents the concentration of compound which causes 50% of the maximum contraction effected by it.

conscious dogs = test: acute toxicity in conscious dogs; type: in vivo, dog; conditions: doses of up to 1 mg/Kg i.v.
[2] = tested on: carotid vascular resistance / carotid arterial blood flow; conditions: anaesthetized dog; cited from earlier work
[3] = target: T1, "5-HT1 -like" receptor (dog isolated saphenous vein strip); conditions: effect of sumatriptan-like contraction blocked by a known 5-HT antagonist; cited from earlier work

T1 sequence (P79250 whole entry): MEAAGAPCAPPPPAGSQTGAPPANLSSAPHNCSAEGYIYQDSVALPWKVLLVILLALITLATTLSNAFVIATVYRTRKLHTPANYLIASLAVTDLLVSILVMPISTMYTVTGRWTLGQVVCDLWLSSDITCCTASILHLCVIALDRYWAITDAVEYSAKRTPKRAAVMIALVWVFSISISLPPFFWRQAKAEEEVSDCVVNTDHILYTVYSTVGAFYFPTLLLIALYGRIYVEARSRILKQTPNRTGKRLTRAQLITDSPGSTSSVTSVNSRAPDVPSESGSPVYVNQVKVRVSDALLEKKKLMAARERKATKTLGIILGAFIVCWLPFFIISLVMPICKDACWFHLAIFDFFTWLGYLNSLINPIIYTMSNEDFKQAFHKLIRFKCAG

Structure (SMILES)	RELATIVE POTENCY EC50 (compound)/EC50 (5-HT) [1]	EC50 [1] [µM]	signs of adverse acute toxicity (conscious dogs)	carotid arterial blood flow [2]	blockade of contraction of dog saphenous vein strip [3]
CCS(=O)(=O)CCc1ccc2[nH]cc(C[C@H]3CCCN3C(C)c3ccccc3)c2c1 (mixture of isomers) [Example 13, 5-(2-Ethylsulphonylethyl)-3-{N-(1(R,S)-phenylethyl]-2(R)-pyrrolidinylmethyl}-1H-indole]	1.4	0.071	no signs of adverse acute toxicity	–	–
CCS(=O)(=O)CCc1ccc2[nH]cc(C[C@H]3CCCN3Cc3ccccn3)c2c1 [Example 1, 5-(2-Ethylsulphonylethyl)-3-[N-[2-pyridylmethyl)-2(R)-pyrrolidinylmethyl]-1H-indole]	9.4	0.43	–	–	–
CCS(=O)(=O)CCc1ccc2[nH]cc(C[C@H]3CCCN3CCOC)c2c1 [Example 4, 5-(2-Ethylsulphonylethyl)-3-[N-(2-methoxyethyl)-2-(R)-pyrrolidinylmethyl]-1H-indole]	2.3	0.12	–	–	–
CCS(=O)(=O)CCc1ccc2[nH]cc(C[C@H]3CCCN3CC=C(C)C)c2c1 [Example 8, 5-(2-Ethylsulphonylethyl)-3-[N-(3-methyl-2-butenyl)-2(R)-pyrrolidinylmethyl]-1H-indole]	2.5	0.19	no signs of adverse acute toxicity	–	–
CCS(=O)(=O)CCc1ccc2[nH]cc(C[C@H]3CCCN3C3CCCC3)c2c1 [Example 9, 3-(N-Cyclopentyl-2(R)-pyrrolidinylmethyl)-5-(2-ethylsulphonylethyl)-1H-indole]	1.8	0.082	–	–	–
O=S(=O)(CCc1ccc2[nH]cc(C[C@H]3CCCN3C3CCCC3)c2c1)c1ccccc1 [Example 21, 3-(N-Cyclopentyl-2(R)-pyrrolidinylmethyl)-5-(2-phenylsulphonylethyl)-1H-indole]	4.9	0.56	–	–	–
CCS(=O)(=O)CCc1ccc2[nH]cc(C[C@H]3CCCN3CCO)c2c1 [Example 26, 5-(2-Ethylsulphonylethyl)-3-[N-(2-hydroxyethyl)-2(R)pyrrolidinylmethyl]-1H-indole]	3.8	0.16	–	–	–
NS(=O)(=O)C=Cc1ccc2[nH]cc(C[C@H]3CCCN3CC3CC3)c2c1 [Example 44, 3-(N-Cyclopropylmethyl-2(R)-pyrrolidinomethyl)-5-(2-sulphamoylethenyl)-1H-indole]	2.7	0.18	–	–	–
CNS(=O)(=O)Cc1ccc2[nH]cc(CCN(C)C)c2c1 [Sumatriptan]	–	–	–	consequent decrease	–
CSc1ccc2c(c1)C(N1CCN(C)CC1)Cc1ccccc1S2 (stereo not drawn) [methiothepin]	–	–	–	–	can be blocked

Further lines, with some results ahead:

RELATIVE POTENCY EC50 (compound)/EC50 (5-HT) [1]	EC50 [1] [µM]	Structure (SMILES)	signs of adverse acute toxicity (conscious dogs)	carotid arterial blood flow [2]	blockade of contraction of dog saphenous vein strip [3]
4.6	0.29	CCS(=O)(=O)CCc1ccc2[nH]cc(C[C@H]3CCCN3CC[S+]([O-])c3ccccc3)c2c1 (single isomer, unassigned) [Example 37A]	–	–	–
1.9	0.031	CCS(=O)(=O)CCc1ccc2[nH]cc(C[C@H]3CCCN3CCC(C)=O)c2c1 [Example 31, 5-(2-Ethylsulphonylethyl)-3-[N-{3-oxo-1-butyl)-2(R)-pyrrolidinylmethyl]-1H-indole]	–	–	–
1.4	0.062	CCS(=O)(=O)CCc1ccc2[nH]cc(C[C@H]3CCCN3CCC(N)=O)c2c1 [Example 34]	–	–	–
11.0	0.29	CCS(=O)(=O)CCc1ccc2[nH]cc(C[C@H]3CCCN3CCc3ccccn3)c2c1 [Example 36]	–	–	–
3.4	0.44	CC(=O)CCN1CCC[C@@H]1Cc1c[nH]c2ccc(CCS(=O)(=O)c3ccccc3)cc12 [Example 38, 3-[N-(3-Oxo-1-butyl)-2-(R)-pyrroldinylmethyl]-5-(2phenylsulphonylethyl)-1H-indole]	–	–	–
